Experiments:
Jeko-1 = assay: cell viability assay; assay type: cell-based, human
Method: The IC50 in cell viability assays were determined for some of the macrocycles prepared in Jeko-1 (B-cell lymphoma (MCL) type cells. With a total incubation period of 48 h.

JVM-2 = assay: cell viability assay; assay type: cell-based, human; conditions: JVM-2 B-cell lymphoma (MCL), 48 h, with respect to untreated control cells
Granta-519 = assay: cell viability assay; assay type: cell-based, human; conditions: Granta-519 B-cell lymphoma (MCL), 48 h, with respect to untreated control cells
A-498 (Renal) = assay: NCI60 panel IC50; assay type: cell-based; conditions: Homo sapiens, A498
Method: (§1) On the other hand, the values of IC50 were determined in the panel of NCl60 cell lines for compound 10.
(§2) A total of 2 independent experiments were carried out with assays in triplicate for the compound and cell line. All those assays where an IC50 value was not reached in the highest concentration of 1E-05 M are represented by “>1E-05”. In these cases, the standard deviation cannot be calculated and for that reason it is calculated as “-”.

A549 (Lung) = assay: NCI60 panel IC50; assay type: cell-based; conditions: Homo sapiens
Method: as §1, §2

ACHN (Renal) = assay: NCI60 panel IC50; assay type: cell-based; conditions: Homo sapiens
Method: as §1, §2

CCRF-CEM (Leukaemia) = assay: NCI60 panel IC50; assay type: cell-based; conditions: Homo sapiens
Method: as §1, §2

COLO-205 (Colon) = assay: NCI60 panel IC50; assay type: cell-based; conditions: Homo sapiens
Method: as §1, §2

Caki-1 (Renal) = assay: NCI60 panel IC50; assay type: cell-based; conditions: Homo sapiens
Method: as §1, §2

DAUDI (Leukaemia) = assay: NCI60 panel IC50; assay type: cell-based; conditions: Homo sapiens
Method: as §1, §2

DMS-114 (Lung) = assay: NCI60 panel IC50; assay type: cell-based; conditions: Homo sapiens
Method: as §1, §2

DU-145 (Prostate) = assay: NCI60 panel IC50; assay type: cell-based; conditions: Homo sapiens
Method: as §1, §2

EKVX (Lung) = assay: NCI60 panel IC50; assay type: cell-based; conditions: Homo sapiens
Method: as §1, §2

HI-60 (Leukaemia) = assay: NCI60 panel IC50; assay type: cell-based; conditions: Homo sapiens
Method: as §1, §2

HOP-62 (Lung) = assay: NCI60 panel IC50; assay type: cell-based; conditions: Homo sapiens
Method: as §1, §2

HOP-92 (Lung) = assay: NCI60 panel IC50; assay type: cell-based; conditions: Homo sapiens
Method: as §1, §2

IGR-OVI (Ovarian) = assay: NCI60 panel IC50; assay type: cell-based; conditions: Homo sapiens
Method: as §1, §2

M-14 (Melanoma) = assay: NCI60 panel IC50; assay type: cell-based; conditions: Homo sapiens, M14
Method: as §1, §2

MALME-3M (Melanoma) = assay: NCI60 panel IC50; assay type: cell-based; conditions: Homo sapiens
Method: as §1, §2

MDA-MB-231 (Breast) = assay: NCI60 panel IC50; assay type: cell-based; conditions: Homo sapiens
Method: as §1, §2

MDA-MB-435 S (Breast) = assay: NCI60 panel IC50; assay type: cell-based; conditions: Homo sapiens
Method: as §1, §2

MDA-MB-468 (Breast) = assay: NCI60 panel IC50; assay type: cell-based; conditions: Homo sapiens
Method: as §1, §2

MOLT-4 (Leukaemia) = assay: NCI60 panel IC50; assay type: cell-based; conditions: Homo sapiens
Method: as §1, §2

NCI-H226 (Lung) = assay: NCI60 panel IC50; assay type: cell-based; conditions: Homo sapiens
Method: as §1, §2

NCI-H460 (Lung) = assay: NCI60 panel IC50; assay type: cell-based; conditions: Homo sapiens
Method: as §1, §2

OVCAR-3 (Ovarian) = assay: NCI60 panel IC50; assay type: cell-based; conditions: Homo sapiens
Method: as §1, §2

PC-3 (Prostate) = assay: NCI60 panel IC50; assay type: cell-based; conditions: Homo sapiens
Method: as §1, §2

RPMI-8226 (Leukaemia) = assay: NCI60 panel IC50; assay type: cell-based; conditions: Homo sapiens
Method: as §1, §2

RXF-393 (Renal) = assay: NCI60 panel IC50; assay type: cell-based; conditions: Homo sapiens
Method: as §1, §2

SF-295 (CNS) = assay: NCI60 panel IC50; assay type: cell-based; conditions: Homo sapiens
Method: as §1, §2

SF539 (Astrocytoma) = assay: NCI60 panel IC50; assay type: cell-based; conditions: Homo sapiens, SF-539
Method: as §1, §2

SHP-77 (Lung) = assay: NCI60 panel IC50; assay type: cell-based; conditions: Homo sapiens, SHP77
Method: as §1, §2

SK-BR-3 (Breast) = assay: NCI60 panel IC50; assay type: cell-based; conditions: Homo sapiens
Method: as §1, §2

SK-MEL-2 (Melanoma) = assay: NCI60 panel IC50; assay type: cell-based; conditions: Homo sapiens
Method: as §1, §2

SK-MEL-5 (Melanoma) = assay: NCI60 panel IC50; assay type: cell-based; conditions: Homo sapiens
Method: as §1, §2

SN 12C (Renal) = assay: NCI60 panel IC50; assay type: cell-based; conditions: Homo sapiens, SN12C
Method: as §1, §2

SNB-19 (CNS) = assay: NCI60 panel IC50; assay type: cell-based; conditions: Homo sapiens
Method: as §1, §2

SW-480 (Colon) = assay: NCI60 panel IC50; assay type: cell-based; conditions: Homo sapiens, SW480
Method: as §1, §2

Sw-620 (Colon) = assay: NCI60 panel IC50; assay type: cell-based; conditions: Homo sapiens
Method: as §1, §2

TK-10 (Renal) = assay: NCI60 panel IC50; assay type: cell-based; conditions: Homo sapiens
Method: as §1, §2

U-251 (CNS) = assay: NCI60 panel IC50; assay type: cell-based; conditions: Homo sapiens
Method: as §1, §2

UACC-62 (Melanoma) = assay: NCI60 panel IC50; assay type: cell-based; conditions: Homo sapiens
Method: as §1, §2

UO-31 (Renal) = assay: NCI60 panel IC50; assay type: cell-based; conditions: Homo sapiens
Method: as §1, §2

With CN1CCCNc2c(c(=O)c2=O)NCCCN(C)CCCNc2c(c(=O)c2=O)NCCCN(C)CCCNc2c(c(=O)c2=O)NCCCN(C)CCCNc2c(c(=O)c2=O)NCCCN(C)CCCNc2c(c(=O)c2=O)NCCC1 [Compound 10] the IC50 (Jeko-1; Homo sapiens, JeKo-1, 48 h, cell viability, total incubation period 48 h, read-out: IC50 (μM) against Jeko-1 cells) was 30.7 µM, the “% Cell viability” value (Jeko-1; Jeko-1 B-cell lymphoma (MCL), 48 h, with respect to untreated control cells) was 46% and the “% Cell viability” value (JVM-2) was 24%. The “% Cell viability” value (Granta-519) was 58%, the IC50 (A-498 (Renal)) was 7.5 µM and the IC50 (A549 (Lung)) was 5.29 µM. For the same compound, the IC50 (ACHN (Renal)) was 3.25 µM, the IC50 (CCRF-CEM (Leukaemia)) was 2.09 µM and the IC50 (COLO-205 (Colon)) was 3.23 µM. It also gave an IC50 (Caki-1 (Renal)) of 5.75 µM, an IC50 (DAUDI (Leukaemia)) of 1.99 µM and an IC50 (DMS-114 (Lung)) of 8.72 µM. For the same compound, the IC50 (DU-145 (Prostate)) was 1.8 µM, the IC50 (EKVX (Lung)) was 2.75 µM and the IC50 (HI-60 (Leukaemia)) was 2.41 µM. It also gave an IC50 (HOP-62 (Lung)) of 6.37 µM, an IC50 (HOP-92 (Lung)) of 3.53 µM and an IC50 (IGR-OVI (Ovarian)) of 2.38 µM. It also gave an IC50 (M-14 (Melanoma)) of 7.21 µM, an IC50 (MALME-3M (Melanoma)) of 9.28 µM and an IC50 (MDA-MB-231 (Breast)) of 2.32 µM. For the same compound, the IC50 (MDA-MB-435 S (Breast)) was 3.66 µM, the IC50 (MDA-MB-468 (Breast)) was 2.37 µM and the IC50 (MOLT-4 (Leukaemia)) was 1.36 µM. It also gave an IC50 (NCI-H226 (Lung)) of 1.53 µM, an IC50 (NCI-H460 (Lung)) of 6.88 µM and an IC50 (OVCAR-3 (Ovarian)) of 5.07 µM. For the same compound, the IC50 (PC-3 (Prostate)) was 2.46 µM, the IC50 (RPMI-8226 (Leukaemia)) was 8.97 µM and the IC50 (RXF-393 (Renal)) was 2.77 µM. For the same compound, the IC50 (SF-295 (CNS)) was 5.52 µM, the IC50 (SF539 (Astrocytoma)) was 3.52 µM and the IC50 (SHP-77 (Lung)) was 2.9 µM. For the same compound, the IC50 (SK-BR-3 (Breast)) was 0.308 µM, the IC50 (SK-MEL-2 (Melanoma)) was 3.29 µM and the IC50 (SK-MEL-5 (Melanoma)) was 2.75 µM. It also gave an IC50 (SN 12C (Renal)) of 4.12 µM, an IC50 (SNB-19 (CNS)) of 1.81 µM and an IC50 (SW-480 (Colon)) of 1.8 µM. It also gave an IC50 (Sw-620 (Colon)) of 9.41 µM, an IC50 (TK-10 (Renal)) of 3.36 µM and an IC50 (U-251 (CNS)) of 7.86 µM. It also gave an IC50 (UACC-62 (Melanoma)) of 1.34 µM and an IC50 (UO-31 (Renal)) of 2.17 µM.
